From patent US4138480A, “Novel anthracycline glycosides and methods of preparing the same” (priority 1976, dated 1979)
“Also recorded” adds a separate entry of the source. Values belong to the compound of their own block, whether it stands above or below them.

Legend:
Na-K ATPase = Na-K ATPase (Oryctolagus cuniculus, UniProt Q9N0Z6); experiment: 50% inhibition of Na-K ATPase by doxorubicin analogs; type: biochemical; details: read-out: Concentration for 50% Inhibition NaK ATPase
Excerpt: (§1) From these facts, it can be deduced, on the basis of the results of Table I as well, that the metallic derivative of doxorubicin formed with the metal proportion 2:1 or higher, lacks the inhibiting effect on the Na-K ATPase, that is to say, they would lack cardiotoxicity. […] The remaining chelates described herein may be expected to behave similarly. […] The compounds have the structure depicted in Formula I wherein R is as in Formula II and R1 is as given.

[1] = cumulative doses; cited from earlier work
[2] = system: spleen weight and immunocompetent cells; experiment: Comparative testing of immunosuppressive properties (spleen weight, immunocompetent cells)
[3] = system: leukemia 1210 mouse cells; experiment: Inhibition of DNA synthesis of leukemia 1210 mouse cells; type: cell-based; details: read-out: Percent of Inhibition of DNA Synthesis
[4] = biological target: T1, ATPase sodium-potassium dependent enzyme (Na-K ATPase) (Oryctolagus cuniculus, UniProt Q9N0Z6); experiment: Activity of the ATPase Na-K dependent enzyme isolated from rabbit heart; type: biochemical
T1 construct: isolated from rabbit heart; from tissue; host or cells: rabbit heart
Excerpt: as §1

rabbit electrocardiogram = experiment: Electrocardiographic alterations after intravenous injection to the rabbit
[5] = Toxicity: survivors after one intraperitoneal injection in mice; details: mouse, in vivo, ip
Experimental: The drugs were administered by only one intraperitoneal injection to groups of ten mice and the numbers of survivors were recorded after eight days.

[6] = system: leukemia P-338 of the mouse; experiment: Therapeutic activity in leukemia P-338 of the mouse; type: in vivo; details: 0 mg/kg 11 days
leucocytes = experiment: Hematological toxicity, leucocyte count; type: in vivo; details: day 7, day 0 4.700
[7] = Passage of hematoencephalic and intestinal barriers; details: in vivo
[8] = read-out: Percent of the ATPase Na-K Dependent Activity

IC50 (Na-K ATPase): 0.001 µM
Compound: COc1cccc2c1C(=O)c1c(O)c3c(c(O)c1C2=O)CC(O)(/C(C)=N/NC(=O)c1ccc(-c2ccccc2)cc1)CC3OC1CC(N)C(O)C(C)O1 (stereo not shown) [NSC-236672]

Compound: COc1cccc2c1C(=O)c1c(O)c3c(c(O)c1C2=O)C[C@@](O)(C(=O)CO)C[C@@H]3O[C@H]1C[C@H](N)[C@H](O)[C@H](C)O1 [Doxorubicin]
cumulative dose attended by severe, oftentimes lethal cardiotoxicity [1]: > 500 mg. per square meter
immunosuppression (spleen weight and immunocompetent cells) [2]: depressed spleen weight and immunocompetent cells to a significant extent
inhibition at 3 µM ([3]; 3 μM): 60%
inhibition at 5 µM ([3]; 5 μM): 68%
inhibition at 7.5 µM ([3]; 7.5 μM): 75%
inhibition at 10 µM ([3]; 10 μM): 90%
effect of calcium on ATPase inhibition [4]: counteracted by calcium
inhibition of Na-K ATPase, in words [4]: strong inhibitor; also recorded: potent inhibitor
activity at 10 pM [4, 8]: 40%
activity at 0.001 µM [4, 8]: 25%
activity at 0.1 µM [4, 8]: 25%
activity at 10 µM [4, 8]: 25%
activity at 100 fM [4, 8]: 65%
alterations of the electrocardiogram, in words (rabbit electrocardiogram): very intense
survival at 192 h ([5]; 10 mg/kg): 100%
survival at 192 h ([5]; 20 mg/kg): 60%
survival at 192 h ([5]; 30 mg/kg): 0%
survival at 192 h ([5]; 40 mg/kg): 0%
survival at 192 h ([5]; 50 mg/kg): 0%
survival at 192 h ([5]; 60 mg/kg): 0%
Days of Mean Survival of Leukemic Mice ([6]; 4 mg/kg i.p.): 50 days
Days of Mean Survival of Leukemic Mice ([6]; 8 mg/kg i.p.): 48 days
Days of Mean Survival of Leukemic Mice ([6]; 12 mg/kg i.p.): 42 days
Days of Mean Survival of Leukemic Mice ([6]; 24 mg/kg i.p.): 6 days
Days of Mean Survival of Leukemic Mice ([6]; 36 mg/kg i.p.): 4 days
Leucocyte Count/mm^3 (leucocytes; 10 mg/kg): 3.300 /mm^3
Leucocyte Count/mm^3 (leucocytes; 20 mg/kg): 2.400 /mm^3
passing both hematoencephalic and intestinal barriers [7]: does not to an effective degree

IC50 (Na-K ATPase): 0.1 µM
Compound: CCc1ccc(C(=O)N/N=C(\C)[C@]2(O)Cc3c(O)c4c(c(O)c3[C@H](O[C@H]3C[C@H](N)[C@H](O)[C@H](C)O3)C2)C(=O)c2c(OC)cccc2C4=O)cc1 [NSC-233854]

IC50 (Na-K ATPase): 10 µM
Compound: COc1cccc2c1C(=O)c1c(O)c3c(c(O)c1C2=O)C[C@@](O)(/C(CO)=N/NC(=O)c1ccc(Cl)c(Cl)c1)C[C@@H]3OC1CC(N)C(O)C(C)O1 (stereo partly shown) [NSC-237672]

Compound: COc1cccc2c1C(=O)c1c(O)c3c(c(O)c1C2=O)C[C@@](O)(C(C)=NNC(=O)c1ccc(O)cc1)C[C@@H]3O[C@H]1C[C@H](N)[C@H](O)[C@H](C)O1 [NSC-221264]
IC50 (Na-K ATPase): 0.0001 µM

Compound: CCCOc1ccc(C(=O)NN=C(C)[C@]2(O)Cc3c(O)c4c(c(O)c3[C@@H](O[C@H]3C[C@H](N)[C@H](O)[C@H](C)O3)C2)C(=O)c2c(OC)cccc2C4=O)cc1 [NSC-234740]
IC50 (Na-K ATPase): 0.01 µM

Compound: COC(=O)[C@]1(O)Cc2c(O)c3c(c(O)c2[C@@H](O[C@H]2C[C@H](N)[C@H](O)[C@H](C)O2)C1)C(=O)c1c(OC)cccc1C3=O [NSC-237638]
IC50 (Na-K ATPase): 0.001 µM

IC50 (Na-K ATPase): 1 µM
Compound: COc1cccc2c1C(=O)c1c(O)c3c(c(O)c1C2=O)C[C@@](O)(/C(C)=N/NC(=O)c1ccc(Cl)c(Cl)c1)C[C@@H]3OC1CC(N)C(O)C(C)O1 (stereo partly shown) [NSC-221266]

Compound: CCCCC(=O)NN=C(C)[C@]1(O)Cc2c(O)c3c(c(O)c2[C@@H](O[C@H]2C[C@H](N)[C@H](O)[C@H](C)O2)C1)C(=O)c1c(OC)cccc1C3=O [NSC-211391]
IC50 (Na-K ATPase): 1 µM

Compound: COc1cccc2c1C(=O)c1c(O)c3c(c(O)c1C2=O)C[C@@](O)(C(CO)=NNC(=O)c1ccccc1)C[C@@H]3O[C@H]1C[C@H](N)[C@H](O)[C@H](C)O1 [NSC-216071]
IC50 (Na-K ATPase): 10 µM

Compound: COc1cccc2c1C(=O)c1c(O)c3c(c(O)c1C2=O)C[C@@](O)(C(C)=NNC(=O)c1ccc([N+](=O)[O-])cc1)C[C@@H]3O[C@H]1C[C@H](N)[C@H](O)[C@H](C)O1 [NSC-221265]
IC50 (Na-K ATPase): 10 µM

Compound: COc1cccc2c1C(=O)c1c(O)c3c(c(O)c1C2=O)C[C@@](O)(C(C)=NNC(=O)c1ccc(N(C)C)cc1)C[C@@H]3O[C@H]1C[C@H](N)[C@H](O)[C@H](C)O1 [NSC-227013]
IC50 (Na-K ATPase): 0.0001 µM

Compound: COc1ccc(C(=O)NN=C(C)[C@]2(O)Cc3c(O)c4c(c(O)c3[C@@H](O[C@H]3C[C@H](N)[C@H](O)[C@H](C)O3)C2)C(=O)c2c(OC)cccc2C4=O)cc1 [NSC-219976]
IC50 (Na-K ATPase): 0.001 µM
